Experiments:
[1] = biological target: T1, JAK2 (JH1 domain-catalytic, Y1007F,Y1008F) kinase (Homo sapiens, UniProt O60674, Y1007F/Y1008F); experiment: JAK2 Binding Assay (JAK2 JH1 Domain Binding Assay); details: JAK2 JH1 domain binding, qPCR detection; read-out: JAK2 Kd
T1 construct: made in house; host or cells: transiently transfected HEK293 cells

Caco2 Permeability Assay = type: in vitro ADME; details: human; for efflux ratio at 2 h, 5 μM: pH 7.4, Caco-2, 5 μM, read-out: Efflux Ratio (ER); for Papp A→B at 2 h, 5 μM: pH 7.4, Caco-2, apical to basolateral
Description: Preparation of Caco-2 Cells: 50 μL and 25 mL of cell culture medium are added to each well of a Transwell® insert and reservoir, respectively. Then, the HTS Transwell® plates are incubated at 37° C., 5% CO2 for 1 hour before cell seeding. Caco-2 cell cells are diluted to 6.86×10^5 cells/mL with culture medium, and 50 μL of cell suspension are dispensed into the filter well of the 96-well HTS Transwell® plate. Cells are cultivated for 14-18 days in a cell culture incubator at 37° C., 5% CO2, 95% relative humidity. Cell culture medium is replaced every other day, beginning no later than 24 hours after initial plating.
Preparation of Stock Solutions: 10 mM stock solutions of test compounds are prepared in DMSO. The stock solutions of positive controls are prepared in DMSO at the concentration of 10 mM. Digoxin and propranolol are used as control compounds in this assay.
Assessment of Cell Monolayer Integrity: Medium is removed from the reservoir and each Transwell® insert and is replaced with prewarmed fresh culture medium. Transepithelial electrical resistance (TEER) across the monolayer is measured using Millicell Epithelial Volt-Ohm measuring system (Millipore, USA). The Plate is returned to the incubator once the measurement is done. The TEER value is calculated according to the following equation: TEER measurement (ohms)×Area of membrane (cm^2)=TEER value (ohm⋅cm^2). A TEER value greater than 230 ohm⋅cm^2 indicates a well-qualified Caco-2 monolayer.
Assay Procedure: The Caco-2 plate is removed from the incubator and washed twice with pre-warmed HBSS (10 mM HEPES, pH 7.4), and then incubated at 37° C. for 30 minutes. The stock solutions of control compounds are diluted in DMSO to get 1 mM solutions and then diluted with HBSS (10 mM HEPES, pH 7.4) to get 5 μM working solutions. The stock solutions of the test compounds are diluted in DMSO to get 1 mM solutions and then diluted with HBSS (10 mM HEPES and 4% BSA, pH 7.4) to get 5 μM working solutions. The final concentration of DMSO in the incubation system is 0.5%. To determine the rate of drug transport in the apical to basolateral direction. 75 μL of 5 μM working solutions of test compounds are added to the Transwell® insert (apical compartment) and the wells in the receiver plate (basolateral compartment) are filled with 235 μL of HBSS (10 mM HEPES and 4% BSA, pH 7.4). To determine the rate of drug transport in the basolateral to apical direction, 235 μL of 5 μM working solutions of test compounds are added to the receiver plate wells (basolateral compartment) and then the Transwell® inserts (apical compartment) are filled with 75 μL of HBSS (10 mM HEPES and 4% BSA, pH 7.4). Time 0 samples are prepared by transferring 50 μL of 5 μM working solution to wells of the 96-deepwell plate, followed by the addition of 200 μL cold methanol containing appropriate internal standards (IS). The plates are incubated at 37° C. for 2 hours. At the end of the incubation, 50 μL samples from donor sides (apical compartment for Ap→*Bl flux, and basolateral compartment for Bl→Ap) and receiver sides (basolateral compartment for Ap→Bl flux, and apical compartment for Bl→Ap) are transferred to wells of a new 96-well plate, followed by the addition of 4 volume of cold acetonitrile or methanol containing appropriate internal standards (IS). Samples are vortexed for 5 minutes and then centrifuged at 3,220 g for 40 minutes. An aliquot of 100 μL of the supernatant is mixed with an appropriate volume of ultra-pure water before LC-MS/MS analysis. To determine the Lucifer Yellow leakage after 2 hour transport period, stock solution of Lucifer yellow is prepared in ultra-pure water and diluted with HBSS (10 mM HEPES, pH 7.4) to reach the final concentration of 100 μM. 100 μL of the Lucifer yellow solution is added to each Transwell® insert (apical compartment), followed by filling the wells in the receiver plate (basolateral compartment) with 300 μL of HBSS (10 mM HEPES, pH 7.4). […]

[2] = Hepatocyte Stability Assay, human hepatocytes; type: in vitro ADME; details: cryopreserved hepatocytes, read-out: Human Heps CLint
Description: 10 mM stock solutions of test compound and positive control are prepared in DMSO. Stock solutions are diluted to 100 μM by combining 198 μL of 50% acetonitrile/50% water and 2 μL of 10 mM stock solution. Verapamil is used as positive control in the assay. Vials of cryopreserved hepatocytes are thawed in a 37° C. water bath with gently shaking. The contents are poured into the 50 mL thawing medium conical tube. Vials are centrifuged at 100 g for 10 minutes at room temperature. Thawing medium is aspirated and hepatocytes are re-suspended with serum-free incubation medium to yield ˜1.5×10^6 cells/mL. Cell viability and density are counted using a Trypan Blue exclusion, and then cells are diluted with serum-free incubation medium to a working cell density of 0.5×10^6 viable cells/mL. A portion of the hepatocytes at 0.5×10^6 viable cells/mL are boiled for 5 min prior to adding to the plate as negative control to eliminate the enzymatic activity so that little or no substrate turnover should be observed. Aliquots of 198 μL hepatocytes are dispensed into each well of a 96-well non-coated plate. The plate is placed in the incubator for approximately 10 minutes. Aliquots of 2 μL of the 100 μM test compound and 2 μL positive control are added into respective wells of a non-coated 96-well plate to start the reaction. The final concentration of test compound is 1 μM. This assay is performed in duplicate. The plate is incubated in the incubator for the designed time points. 25 μL of contents are transferred and mixed with 6 volumes (150 μL) of cold acetonitrile with internal standard (100 nM alprazolam, 200 nM labetalol, 200 nM caffeine and 200 nM diclofenac) to terminate the reaction at time points of 0, 15, 30, 60, 90 and 120 minutes. Samples are centrifuged for 25 minutes at 3,220 g and aliquots of 150 μL of the supernatants are used for LC-MS/MS analysis.

T1 sequence (O60674 849-1124 Y1007F/Y1008F limits assumed): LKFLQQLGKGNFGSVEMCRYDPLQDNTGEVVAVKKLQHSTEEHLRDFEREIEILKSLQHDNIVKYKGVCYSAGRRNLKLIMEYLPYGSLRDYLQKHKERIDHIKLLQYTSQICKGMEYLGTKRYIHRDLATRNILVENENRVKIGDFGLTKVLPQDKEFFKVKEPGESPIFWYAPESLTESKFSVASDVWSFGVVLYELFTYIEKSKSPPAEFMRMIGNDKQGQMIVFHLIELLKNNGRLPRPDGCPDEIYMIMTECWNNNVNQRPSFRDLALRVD

| Compound | Kd [1] [nM] | efflux ratio at 2 h, 5 μM (Caco2 Permeability Assay) | Papp A→B at 2 h, 5 μM (Caco2 Permeability Assay) [×10⁻⁶ cm/s] | CLint scaled at 1 μM [2] [mL/min/kg] |
| --- | --- | --- | --- | --- |
| COC1CN(C(=O)Nc2cc(Oc3cnc4nc(Nc5cc6n(n5)CCC65CCC5)n(C)c4c3C#N)ccn2)C1 [Example I-61, N-(4-((7-cyano-2-((5′,6′-dihydrospiro[cyclobutane-1,4′-pyrrolo[1,2-b]pyrazol]-2′-yl)amino)-1-methyl-1H-imidazo[4,5-b]pyridin-6-yl)oxy)pyridin-2-yl)-3-methoxyazetidine carboxamide] | < 10 | 2 to 5 | 3 | ≤ 6 |
| Cn1cc(C(F)(F)F)cc(Nc2nc3ncc(Oc4ccnc(NC(=O)OCCN5CCOCC5)c4)c(C#N)c3n2C)c1=O [Example I-15, 2-Morpholinoethyl(4-((7-cyano-1-methyl-2-((1-methyl-2-oxo-5-(trifluoromethyl)-1,2-dihydropyridin-3-yl)amino)-1H-imidazo[4,5-b]pyridin-6-yl)oxy)pyridin-2-yl)carbamate] | < 10 | 2 to 5 | 4 | ≤ 6 |
| COC(=O)Nc1cc(Oc2cnc3nc(Nc4cc5n(n4)CCC54CCC4)n(C)c3c2C#N)ccn1 [Example I-57, methyl(4-((7-cyano-2-((5′,6′-dihydrospiro[cyclobutane-1,4′-pyrrolo[1,2-b]pyrazol]-2′-yl)amino)-1-methyl-1H-imidazo[4,5-b]pyridin-6-yl)oxy)pyridin-2-yl)carbamate] | < 10 | ≤ 2 | 5 | 6 to 12 |
| COC1CN(C(=O)Nc2cc(Oc3cnc4nc(Nc5cc6n(n5)CCCC6(F)F)n(C)c4c3C#N)ccn2)C1 [Example I-26, N-(4-((7-cyano-2-((4,4-difluoro-4,5,6,7-tetrahydropyrazolo[1,5-a]pyridin-2-yl)amino)-1-methyl-1H-imidazo[4,5-b]pyridin-6-yl)oxy)pyridin-2-yl)-3-methoxyazetidine-1-carboxamide] | < 10 | 5 to 10 | 2 | 6 to 12 |
| CN(C)C(=O)Nc1cc(Oc2cnc3nc(Nc4cc5n(n4)CCC54CCC4)n(C)c3c2C#N)ccn1 [Example I-56, 3-(4-((7-cyano-2-((5′,6′-dihydrospiro[cyclobutane-1,4′-pyrrolo[1,2-b]pyrazol]-2′-yl)amino)-1-methyl-1H-imidazo[4,5-b]pyridin-6-yl)oxy)pyridin-2-yl)-1,1-dimethylurea] | < 10 | ≤ 2 | 5 | ≤ 6 |

The remaining lines, values ahead:

| Kd [1] [nM] | efflux ratio at 2 h, 5 μM (Caco2 Permeability Assay) | Papp A→B at 2 h, 5 μM (Caco2 Permeability Assay) [×10⁻⁶ cm/s] | CLint scaled at 1 μM [2] [mL/min/kg] | Compound |
| --- | --- | --- | --- | --- |
| < 10 | ≤ 2 | 12 | 12 to 20 | COCC(=O)Nc1cc(Oc2cnc3nc(Nc4cc(C(F)(F)F)cn(C)c4=O)n(C)c3c2Cl)ccn1 [Example I-75, N-(4-((7-chloro-1-methyl-2-((1-methyl-2-oxo-5-(trifluoromethyl)-1,2-dihydropyridin-3-yl)amino)-1H-imidazo[4,5-b]pyridin-6-yl)oxy)pyridin-2-yl)-2-methoxyacetamide] |
| < 10 | ≤ 2 | 5 | 12 to 20 | CC(=O)Nc1cc(Oc2cnc3nc(Nc4cc(C(F)(F)F)cn(C)c4=O)n(C)c3c2Cl)c(F)cn1 [Example I-88, N-(4-((7-chloro-1-methyl-2-((1-methyl-2-oxo-5-(trifluoromethyl)-1,2-dihydropyridin-3-yl)amino)-1H-imidazo[4,5-b]pyridin-6-yl)oxy)-5-fluoropyridin-2-yl)acetamide] |
| < 10 | 5 to 10 | 2 | 6 to 12 | Cn1c(Nc2cc3n(n2)CCOC3(C)C)nc2ncc(Oc3ccnc(NC(=O)O[C@@H]4CCOC4)c3)c(C#N)c21 [Example I-48, (R)-Tetrahydrofuran-3-yl(4-((7-cyano-2-((4,4-dimethyl-6,7-dihydro-4H-pyrazolo[5,1-c][1,4]oxazin-2-yl)amino)-1-methyl-1H-imidazo[4,5-b]pyridin-6-yl)oxy)pyridin-2-yl)carbamate] |
